pIC50: −log10 of the molar value.

For test [1], the target named is T1, Zinc finger protein GLI1 (Homo sapiens, UniProt P08151).
T1 sequence (P08151 whole entry): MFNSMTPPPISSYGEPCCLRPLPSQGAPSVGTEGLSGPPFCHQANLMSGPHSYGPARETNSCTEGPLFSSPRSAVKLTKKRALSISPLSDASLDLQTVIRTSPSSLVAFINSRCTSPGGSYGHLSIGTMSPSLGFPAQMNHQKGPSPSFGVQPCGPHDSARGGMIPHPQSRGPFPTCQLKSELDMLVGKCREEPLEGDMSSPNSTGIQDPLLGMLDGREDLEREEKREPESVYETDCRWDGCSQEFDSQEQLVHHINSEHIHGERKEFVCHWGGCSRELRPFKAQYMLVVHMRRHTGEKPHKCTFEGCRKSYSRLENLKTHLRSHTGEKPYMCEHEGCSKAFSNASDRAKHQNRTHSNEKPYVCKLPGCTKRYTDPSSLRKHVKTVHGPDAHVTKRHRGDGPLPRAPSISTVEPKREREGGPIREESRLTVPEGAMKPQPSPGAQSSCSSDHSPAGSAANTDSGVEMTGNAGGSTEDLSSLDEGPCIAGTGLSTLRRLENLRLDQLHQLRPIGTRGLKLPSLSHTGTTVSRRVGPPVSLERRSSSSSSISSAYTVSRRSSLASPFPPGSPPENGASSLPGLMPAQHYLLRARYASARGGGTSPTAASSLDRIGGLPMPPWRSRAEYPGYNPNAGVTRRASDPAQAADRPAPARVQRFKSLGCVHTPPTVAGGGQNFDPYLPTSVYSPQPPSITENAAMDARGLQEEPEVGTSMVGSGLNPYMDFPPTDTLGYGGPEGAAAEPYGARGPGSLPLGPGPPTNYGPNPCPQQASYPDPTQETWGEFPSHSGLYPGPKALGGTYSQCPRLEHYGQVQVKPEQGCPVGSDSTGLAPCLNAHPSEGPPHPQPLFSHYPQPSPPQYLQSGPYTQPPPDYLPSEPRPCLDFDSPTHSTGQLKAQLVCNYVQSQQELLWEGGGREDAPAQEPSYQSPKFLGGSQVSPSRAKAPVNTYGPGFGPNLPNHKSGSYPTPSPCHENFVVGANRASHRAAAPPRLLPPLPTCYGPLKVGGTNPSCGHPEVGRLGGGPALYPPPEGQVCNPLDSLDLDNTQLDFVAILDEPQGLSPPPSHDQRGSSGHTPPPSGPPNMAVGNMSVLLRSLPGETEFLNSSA
The test is described as follows: Inhibition of GLI1-mediated transcriptional activity in human HaCaT cells coexpressing luciferase.

The target in test [2] is T1, Zinc finger protein GLI1. The test is described as follows: Inhibition of GLI1 (unknown origin) transcriptional activity.

As to `CO[C@H]1C=C[C@@]23c4cc5c(cc4CN(C[C@@H]2O)[C@H]3C1)OCO5` [CHEBI:3914], the pIC50 in test [1] was 5.33. Take `C[C@]12C(=O)C=CCC1=CC[C@@H]1[C@@H]2CC[C@]2(O)C(=O)O[C@@]3(C)[C@H]4C[C@]5(C)[C@@H](CO[C@@]16O[C@@]32[C@H]5C6=O)C(=O)O4` [NSC-287088]: the negative logarithm of the IC50 (pIC50) in test [2] is 6.22. Consider `O[C@H]1[C@H]2c3cc4c(cc3CN3CCC(=C[C@@H]1O)[C@H]23)OCO4` [9,10-(methylenedioxy)-3,12-didehydrogalanthan-1alpha,2beta-diol], for which, in test [1], the pIC50 was 4.72.

The compound `C[C@@]12C[C@H]3OC(=O)[C@@H]1CO[C@]14O[C@@]5([C@H]2C1=O)[C@@]3(C)OC(=O)[C@@]5(O)CC[C@H]1[C@H]4C[C@H]2O[C@]23CC=CC(=O)[C@]13C` had a negative-log IC50 (pIC50) in test [2] of 6.15. On the same count and under the same terms, with `C[C@]12C(=O)CC=CC1=CC[C@@H]1[C@@H]2CC[C@]2(O)C(=O)O[C@@]3(C)[C@H]4C[C@]5(C)[C@@H](CO[C@@]16O[C@@]32[C@H]5C6=O)C(=O)O4` the figure was 5.38.

The values above are taken from BindingDB's records for PubMed 36332550 (Peking Union Medical College, 2022).
